For the test, the system named is Guinea Pig trachea. Kind of test: In-vitro functional assay, carbachol-contracted isolated trachea. Particulars: Cavia porcellus; isolated tissue, 1 μM carbachol contraction; range stated for the group of tested compounds. Here is the method: The contractile results are expressed as % of control E max. ED50 values are calculated by fitting a non-linear regression curve (Graph Pad Prism). pKb values are calculated by the formula pKb=−log [(molar concentration of antagonist/(dose ratio−1))]
where, dose ratio=ED50 in the presence of antagonist/ED50 in the absence of antagonist.
The Guinea Pig (400-600 gm) was procured and trachea was removed under anesthesia (sodium pentobarbital, 300 mg/kg i.p) and was immediately kept it in ice-cold Krebs Henseleit buffer. Indomethacin (10 μM) was present throughout the KH buffer to prevent the formation of bronchoactive prostanoids.
The tissue of adherent fascia was cleaned and was cut into strips of equal size (with approximately 4-5 tracheal rings in each strip). The epithelium was removed by careful rubbing, minimizing damage to the smooth muscle. […] Opposite ends of the cut rings were tied with the help of a thread. The tissue was mounted in isolated tissue baths containing 10 ml Krebs Henseleit buffer maintained at 37° C. and bubbled with carbogen, at a basal tension of 1 gm. The buffer was changed 4-5 times for about an hour. The tissue was equilibrated for 1 hour for stabilization. After 1 hour, the tissue was challenged with 1 μM carbachol. This was repeated after every 2-3 washes till two similar consecutive responses were obtained. At the end of stabilization, the tissue was washed for 30 minutes followed by incubation with suboptimal dose of MRA/Vehicle for 20 minutes prior to contraction of the tissues with 1 μM carbachol. The contractile response of tissues was recorded either on Powerlab data acquisition system or on Grass polygraph (Model 7). The relaxation was expressed as percentage of maximum carbachol response. The data was expressed as mean±s.e. mean for n observations. The EC50 was calculated as the concentration producing 50% of the maximum relaxation to 1 μM carbachol. The percent relaxation was compared between the treated and control tissues using non-parametric unpaired t-test. A p value of <0.05 was considered to be statistically significant.

We go through 17 compounds from patent publication US20100168197A1, “MUSCARINIC RECEPTOR ANTAGONISTS” (priority 2007, published 2010).

As to `Cc1n(CCCOC(=O)[C@](O)(c2ccccc2)[C@@H]2CCCC(F)(F)C2)cc[n+]1C` [Compound No. 5, 1-[3-({(2R)-2-[(1R)-3,3-Difluorocyclohexyl]-2-hydroxy-2-phenylacetyl}oxy)propyl]-2,3-dimethyl-1H-imidazol-3-ium iodide], the Kb is 0.1 to 3.16 nM.

`Cc1n(CCCOC(=O)C(O)(c2ccccc2)C2CCCCCC2)cc[n+]1C` (centres unmarked) [Compound No. 6, 1-(3-{[Cycloheptyl(hydroxy)phenylacetyl]oxy}propyl)-2,3-dimethyl-1H-imidazol-3-ium iodide] gave a Kb of 0.1 to 3.16 nM.

Turning to `Cc1n(CCCOC(=O)[C@](O)(c2ccccc2)[C@@H]2CCCC(F)(F)C2)cc[n+]1Cc1ccc(Br)cc1` [Compound No. 9, 3-(4-Bromobenzyl)-1-[3-({(2R)-2-[(1R)-3,3-difluorocyclohexyl]-2-hydroxy-2-phenylacetyl}oxy)propyl]-2-methyl-1H-imidazol-3-ium bromide], the Kb was 0.1 to 3.16 nM.

In the case of `Cc1n(CCCOC(=O)[C@](O)(c2ccccc2)[C@@H]2CCC(F)(F)C2)cc[n+]1Cc1ccc(F)cc1` [Compound No. 13, 1-[3-({(2R)-2-[(1R)-3,3-Difluorocyclopentyl]-2-hydroxy-2-phenylacetyl}oxy)propyl]-3-(4-fluorobenzyl)-2-methyl-1H-imidazol-3-ium bromide], the Kb is 0.1 to 3.16 nM.

For the compound `Cc1n(CCOC(=O)[C@](O)(c2ccccc2)[C@@H]2CCC(F)(F)C2)cc[n+]1Cc1ccccc1` [Compound No. 17, 3-Benzyl-1-[2-({(2R)-2-[(1R)-3,3-difluorocyclopentyl]-2-hydroxy-2-phenylacetyl}oxy)ethyl]-2-methyl-1H-imidazol-3-ium chloride], the Kb was 0.1 to 3.16 nM.

`Cc1n(CCOC(=O)[C@](O)(c2ccccc2)[C@@H]2CCC(F)(F)C2)cc[n+]1C` [Compound No. 19, 1-[2-({(2R)-2-[(1R)-3,3-Difluorocyclopentyl]-2-hydroxy-2-phenylacetyl}oxy)ethyl]-2,3-dimethyl-1H-imidazol-3-ium bromide] gave a Kb of 0.1 to 3.16 nM.

`CC[n+]1ccn(CCCOC(=O)[C@](O)(c2ccccc2)[C@@H]2CCC(F)(F)C2)c1C` [Compound No. 21, 1-[3-({(2R)-2-[(1R)-3,3-Difluorocyclopentyl]-2-hydroxy-2-phenylacetyl}oxy)propyl]-3-ethyl-2-methyl-1H-imidazol-3-ium iodide] had a Kb of 0.1 to 3.16 nM.

Consider `Cc1n(CCCOC(=O)[C@](O)(c2ccccc2)[C@@H]2CCC(F)(F)C2)cc[n+]1CC1CC1` [Compound No. 22, 3-(Cyclopropylmethyl)-1-[3-({(2R)-2-[(1R)-3,3-difluorocyclopentyl]-2-hydroxy-2-phenylacetyl}oxy)propyl]-2-methyl-1H-imidazol-3-ium bromide], for which the Kb was 0.1 to 3.16 nM.

`Cc1n(CCCOC(=O)[C@](O)(c2ccccc2)[C@@H]2CCC(F)(F)C2)cc[n+]1CC1CCCCC1` [Compound No. 23, 3-(Cyclohexylmethyl)-1-[3-({(2R)-2-[(1R)-3,3-difluorocyclopentyl]-2-hydroxy-2-phenylacetyl}oxy)propyl]-2-methyl-1H-imidazol-3-ium bromide] gave a Kb of 0.1 to 3.16 nM.

Consider `Cc1n(CCCOC(=O)[C@](O)(c2ccccc2)[C@@H]2CCC(F)(F)C2)cc[n+]1Cc1ccccc1` [Compound No. 28, 3-Benzyl-1-[3-({(2R)-2-[(1R)-3,3-difluorocyclopentyl]-2-hydroxy-2-phenylacetyl}oxy)propyl]-2-methyl-1H-imidazol-3-ium chloride], for which the Kb is 0.1 to 3.16 nM.

Take `Cc1n(CCCOC(=O)[C@](O)(c2ccccc2)[C@@H]2CCC(F)(F)C2)cc[n+]1CCc1ccccc1` [Compound No. 29, 1-[3-({(2R)-2-[(1R)-3,3-Difluorocyclopentyl]-2-hydroxy-2-phenylacetyl}oxy)propyl]-2-methyl-3-(2-phenylethyl)-1H-imidazol-3-ium bromide]: the Kb was 0.1 to 3.16 nM.

In turn, `Cc1n(CCCOC(=O)[C@](O)(c2ccccc2)[C@@H]2CCC(F)(F)C2)cc[n+]1C` [Compound No. 30, 1-[3-({(2R)-2-[(1R)-3,3-Difluorocyclopentyl]-2-hydroxy-2-phenylacetyl}oxy)propyl]-2,3-dimethyl-1H-imidazol-3-ium bromide] showed a Kb of 0.1 to 3.16 nM.

The compound `Cc1n(CCCOC(=O)[C@](O)(c2ccccc2)[C@@H]2CCCC(F)(F)C2)cc[n+]1Cc1ccc(F)cc1` [Compound No. 31, 1-[3-({(2R)-2-[(1R)-3,3-Difluorocyclohexyl]-2-hydroxy-2-phenylacetyl}oxy)propyl]-3-(4-fluorobenzyl)-2-methyl-1H-imidazol-3-ium bromide] gave a Kb of 0.1 to 3.16 nM.

The compound `Cc1n(CCCOC(=O)[C@](O)(c2ccccc2)[C@@H]2CCCC(F)(F)C2)cc[n+]1Cc1ccccc1` [Compound No. 37, 3-Benzyl-1-[3-({(2R)-2-[(1R)-3,3-difluorocyclohexyl]-2-hydroxy-2-phenylacetyl}oxy)propyl]-2-methyl-1H-imidazol-3-ium chloride] showed a Kb of 0.1 to 3.16 nM.

For `CCCC[n+]1ccn(CCCOC(=O)[C@](O)(c2ccccc2)[C@@H]2CCC(F)(F)C2)c1C` [Compound No. 51, 3-Butyl-1-[3-({(2R)-2-[(1R)-3,3-difluorocyclopentyl]-2-hydroxy-2-phenylacetyl}oxy)propyl]-2-methyl-1H-imidazol-3-ium bromide], the Kb is 0.1 to 3.16 nM.

Consider `Cc1n(CCOC(=O)[C@](O)(c2ccccc2)[C@@H]2CCC(F)(F)C2)cc[n+]1CC1CC1` [Compound No. 85, 3-(Cyclopropylmethyl)-1-[2-({(2R)-2-[(1R)-3,3-difluorocyclopentyl]-2-hydroxy-2-phenylacetyl}oxy)ethyl]-2-methyl-1H-imidazol-3-ium bromide], for which the Kb is 0.1 to 3.16 nM.

`CCCC[n+]1ccn(CCCOC(=O)C(O)(c2cccs2)c2cccs2)c1C` [Compound No. 95, 3-Butyl-1-{3-[2-hydroxy(di-2-thienyl)acetoxy]propyl}-2-methyl-1H-imidazol-3-ium bromide] showed a Kb of 0.1 to 3.16 nM.
